Measurements from PubChem BioAssay AID256 (DTP/NCI, 2004).
Inconclusive results and toxic doses are left out. How the source made its calls: active means survival T/C of 150% or more; inactive means T/C below 125% in these data.

Test system: CD2F1 mice, L1210 leukemia ip, survival T/C
Experiment: NCI In Vivo Anticancer Drug Screen. Data for tumor model L1210 Leukemia (intraperitoneal) in CD2F1 (CDF1) mice
Conditions: higher = longer survival
In short: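 Antitumor effect is scored in animals hosting a serially transplanted tumor. Values compare compound-dosed animals against vehicle-only controls as a simple quotient.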

[1] = endpoint: mean survival time, dose: 100.0 mg/kg/injection, schedule: Q01DX009 (ip), vehicle: saline with Tween-80
[2] = endpoint: mean survival time, dose: 200.0 mg/kg/injection, schedule: Q01DX009 (ip), vehicle: saline with Tween-80
[3] = endpoint: mean survival time, dose: 400.0 mg/kg/injection, schedule: Q01DX009 (ip), vehicle: saline with Tween-80

Measured: T/C

O=C(O)c1cccc2c1C(=O)c1ccccc1C2=O
inactive: endpoint: mean survival time, dose: 100.0 mg/kg/injection, schedule: Q04DX003 (ip), vehicle: Klucel (hydroxypropylcellulose) (HPC) 117 % of control | endpoint: mean survival time, dose: 200.0 mg/kg/injection, schedule: Q04DX003 (ip), vehicle: Klucel (hydroxypropylcellulose) (HPC) 101 % of control | endpoint: mean survival time, dose: 400.0 mg/kg/injection, schedule: Q04DX003 (ip), vehicle: Klucel (hydroxypropylcellulose) (HPC) 109 % of control

C[Si](C)(C)Oc1ccc(OCc2ccccc2)cc1
inactive: endpoint: mean survival time, dose: 50.0 mg/kg/injection, schedule: Q04DX002 (ip), vehicle: saline with Tween-80 87 % of control | endpoint: mean survival time, dose: 100.0 mg/kg/injection, schedule: Q04DX002 (ip), vehicle: saline with Tween-80 87 % of control | endpoint: mean survival time, dose: 200.0 mg/kg/injection, schedule: Q04DX002 (ip), vehicle: saline with Tween-80 95 % of control | endpoint: mean survival time, dose: 400.0 mg/kg/injection, schedule: Q04DX002 (ip), vehicle: saline with Tween-80 95 % of control

CCS/C(SC)=C(/c1ccccc1)[P+](c1ccccc1)(c1ccccc1)c1ccccc1
inactive: endpoint: median survival time, dose: 1.5 mg/kg/injection, schedule: Q01DX009 (ip), vehicle: Klucel (hydroxypropylcellulose) (HPC) 111 % of control | endpoint: median survival time, dose: 3.0 mg/kg/injection, schedule: Q01DX009 (ip), vehicle: Klucel (hydroxypropylcellulose) (HPC) 114 % of control

CN(C)N=Nc1ccc(C(F)(F)F)cc1
inactive: endpoint: mean survival time, dose: 118.0 mg/kg/injection, schedule: Q01DX009 (ip), vehicle: Klucel (hydroxypropylcellulose) (HPC) 101 % of control | endpoint: mean survival time, dose: 177.0 mg/kg/injection, schedule: Q01DX009 (ip), vehicle: Klucel (hydroxypropylcellulose) (HPC) 102 % of control

NP(=O)(OCCCCOCc1ccccc1)N(CCCl)CCCl (configuration not stated)
inactive: endpoint: mean survival time, dose: 25.0 mg/kg/injection, schedule: Q01DX001 (ip), vehicle: other 98 % of control | endpoint: mean survival time, dose: 50.0 mg/kg/injection, schedule: Q01DX001 (ip), vehicle: other 101 % of control | endpoint: mean survival time, dose: 100.0 mg/kg/injection, schedule: Q01DX001 (ip), vehicle: other 101 % of control | endpoint: mean survival time, dose: 200.0 mg/kg/injection, schedule: Q01DX001 (ip), vehicle: other 90 % of control | endpoint: mean survival time, dose: 400.0 mg/kg/injection, schedule: Q01DX001 (ip), vehicle: other 95 % of control

Cc1c[n+]([O-])cc(=O)[nH]1
inactive: [1] 97 % of control | endpoint: mean survival time, dose: 100.0 mg/kg/injection, schedule: Q04DX003 (ip), vehicle: saline with Tween-80 96 % of control | [2] 97 % of control | endpoint: mean survival time, dose: 200.0 mg/kg/injection, schedule: Q04DX003 (ip), vehicle: saline with Tween-80 100 % of control | [3] 95 % of control | endpoint: mean survival time, dose: 400.0 mg/kg/injection, schedule: Q04DX003 (ip), vehicle: saline with Tween-80 100 % of control

Cc1csc(C)[n+]1C
inactive: endpoint: mean survival time, dose: 25.0 mg/kg/injection, schedule: Q01DX009 (ip), vehicle: saline sonified 102 % of control | endpoint: mean survival time, dose: 50.0 mg/kg/injection, schedule: Q01DX009 (ip), vehicle: saline sonified 104 % of control | endpoint: mean survival time, dose: 100.0 mg/kg/injection, schedule: Q01DX001 (ip), vehicle: saline with Tween-80 100 % of control | endpoint: mean survival time, dose: 100.0 mg/kg/injection, schedule: Q01DX009 (ip), vehicle: saline sonified 98 % of control

O=C(O)c1ccc([As](=O)(O)O)cc1[N+](=O)[O-]
inactive: endpoint: mean survival time, dose: 50.0 mg/kg/injection, schedule: Q04DX003 (ip), vehicle: saline 105 % of control | endpoint: mean survival time, dose: 100.0 mg/kg/injection, schedule: Q04DX003 (ip), vehicle: saline 97 % of control | endpoint: mean survival time, dose: 200.0 mg/kg/injection, schedule: Q04DX003 (ip), vehicle: saline 95 % of control

BrC(Br)(Br)c1ccc2ccccc2n1
inactive: [1] 96 % of control | [2] 94 % of control | [3] 102 % of control

COc1nc(=O)n(C2C=CC(=O)O2)cc1F (configuration not stated)
inactive: endpoint: median survival time, dose: 6.25 mg/kg/injection, schedule: Q01DX009 (ip), vehicle: saline 98 % of control | endpoint: median survival time, dose: 12.5 mg/kg/injection, schedule: Q01DX009 (ip), vehicle: saline 100 % of control | endpoint: median survival time, dose: 25.0 mg/kg/injection, schedule: Q01DX009 (ip), vehicle: saline 108 % of control | endpoint: median survival time, dose: 50.0 mg/kg/injection, schedule: Q01DX009 (ip), vehicle: saline 108 % of control | endpoint: median survival time, dose: 100.0 mg/kg/injection, schedule: Q01DX009 (ip), vehicle: saline 110 % of control

[Cl][Pt+2][Cl].[NH-]Nc1nc2ccccc2s1.[NH-]Nc1nc2ccccc2s1
inactive: endpoint: mean survival time, dose: 5.0 mg/kg/injection, schedule: Q04DX003 (ip), vehicle: saline with Tween-80 102 % of control | endpoint: mean survival time, dose: 10.0 mg/kg/injection, schedule: Q04DX003 (ip), vehicle: saline with Tween-80 98 % of control | endpoint: mean survival time, dose: 20.0 mg/kg/injection, schedule: Q04DX003 (ip), vehicle: saline with Tween-80 94 % of control | endpoint: mean survival time, dose: 40.0 mg/kg/injection, schedule: Q04DX003 (ip), vehicle: saline with Tween-80 98 % of control | endpoint: mean survival time, dose: 80.0 mg/kg/injection, schedule: Q04DX003 (ip), vehicle: saline with Tween-80 94 % of control
